For nine molecules, TGI results are on record in PubChem BioAssay (NCI).

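48-hour exposure; five concentrations; linearly interpolated endpoints. TGI is the concentration that stops growth completely.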

Test systems include ACHN renal; HCT-15 colon; HT29 colon; M14 melanoma; MCF7 breast; MDA-MB-435; NCI-H226 lung; NCI-H23 lung; NCI/ADR-RES ovarian; OVCAR-3 ovarian; OVCAR-4 ovarian; PC-3 prostate; SF-268 CNS; SF-295 CNS; SF-539 CNS; SNB-19 CNS.
Common to all, as to assay: growth of human tumour cells (NCI), 48 h

With `CCO/C(O)=c1/s/c(=C2/SC(=S)N(c3ccc(C)cc3)C2=O)n(-c2ccccc2)c1=N`, the TGI with ACHN renal, in the experiment with HCT-15 colon, in the experiment with HT29 colon, in the experiment with M14 melanoma, in the experiment with MCF7 breast and with MDA-MB-435 was more than 100 µM in each case. The TGI in the experiment on NCI-H226 lung was more than 76.9 µM; in the experiment on NCI-H23 lung, more than 100 µM; in the experiment on NCI/ADR-RES ovarian, more than 100 µM; in the experiment with OVCAR-3 ovarian, more than 100 µM; in the experiment on OVCAR-4 ovarian, 44.3 µM; in the experiment on PC-3 prostate it was more than 100 µM. Further, the TGI with SF-268 CNS is more than 95.8 µM; in the experiment with SF-295 CNS, 59.7 µM; in the experiment on SF-539 CNS, 39 µM; with SNB-19 CNS, more than 100 µM.

With `COC(=O)C12C(=O)CC3CCC1C32C(=O)OC` (centres undefined), the TGI with ACHN renal, in the experiment on HCT-15 colon, in the experiment with HT29 colon, in the experiment on M14 melanoma, in the experiment with MCF7 breast and in the experiment with MDA-MB-435 was more than 100 µM each time. Moreover, the TGI with NCI-H226 lung, in the experiment on NCI-H23 lung, in the experiment on NCI/ADR-RES ovarian, in the experiment on OVCAR-3 ovarian, in the experiment with OVCAR-4 ovarian and in the experiment on PC-3 prostate was more than 100 µM throughout. Besides, the TGI in the experiment on SF-268 CNS, in the experiment on SF-295 CNS, in the experiment on SF-539 CNS and in the experiment with SNB-19 CNS was more than 100 µM in each case.

In the case of `Cc1c2ccccc2c(/C=N/NC(=O)CSCC(=O)N/N=C/c2c3ccccc3c(C)c3ccccc23)c2ccccc12`, the TGI in the experiment on ACHN renal is more than 89 µM; in the experiment with HCT-15 colon, more than 100 µM; in the experiment with HT29 colon, more than 100 µM; in the experiment on M14 melanoma, more than 100 µM; in the experiment with MCF7 breast, more than 78.7 µM; in the experiment with MDA-MB-435 it was more than 100 µM. Besides, the TGI was more than 61.1 µM in the experiment with NCI-H226 lung; 50.7 µM in the experiment on NCI-H23 lung; more than 100 µM with NCI/ADR-RES ovarian; more than 80.9 µM in the experiment with OVCAR-3 ovarian; more than 100 µM in the experiment on OVCAR-4 ovarian; more than 67.5 µM in the experiment on PC-3 prostate. The TGI is more than 75.3 µM with SF-268 CNS, 49.9 µM with SF-295 CNS, more than 56.9 µM in the experiment with SF-539 CNS and more than 100 µM with SNB-19 CNS.

As for `Cc1ccc(N=NC(=Nc2ccc(F)cc2)c2ccc(N(CCC#N)CCC#N)cc2)cc1`, the TGI with ACHN renal, with HCT-15 colon, with HT29 colon, in the experiment with M14 melanoma, with MCF7 breast and with MDA-MB-435 was more than 100 µM each time. Also, the TGI with NCI-H226 lung, with NCI-H23 lung, in the experiment with NCI/ADR-RES ovarian, in the experiment with OVCAR-3 ovarian, in the experiment with OVCAR-4 ovarian and in the experiment with PC-3 prostate was more than 100 µM each time. Further, the TGI with SF-268 CNS, in the experiment on SF-295 CNS, in the experiment on SF-539 CNS and with SNB-19 CNS was more than 100 µM throughout.

Take `CC1=NN(c2ccccc2)C(=O)/C1=C1\SC(c2ccccc2)(c2ccccc2)c2ccccc21`: the TGI with ACHN renal, in the experiment with HCT-15 colon, in the experiment on HT29 colon, with M14 melanoma, in the experiment on MCF7 breast and with MDA-MB-435 was more than 100 µM throughout. Also, the TGI in the experiment on NCI-H226 lung, in the experiment on NCI-H23 lung, with NCI/ADR-RES ovarian, in the experiment with OVCAR-3 ovarian, in the experiment with OVCAR-4 ovarian and in the experiment on PC-3 prostate was more than 100 µM each time. For the same molecule, the TGI with SF-268 CNS, in the experiment on SF-295 CNS, with SF-539 CNS and in the experiment with SNB-19 CNS was more than 100 µM throughout.

As for `CCOC(=O)N1CCC2(CC1)C[C@](Sc1ccccc1)(C(C)=O)[C@H](C)O2`, the TGI in the experiment on ACHN renal, with HCT-15 colon, in the experiment with HT29 colon, with M14 melanoma, in the experiment with MCF7 breast and in the experiment with MDA-MB-435 was more than 100 µM throughout. Also, the TGI with NCI-H226 lung, in the experiment with NCI-H23 lung, in the experiment with NCI/ADR-RES ovarian, in the experiment with OVCAR-3 ovarian, in the experiment on OVCAR-4 ovarian and in the experiment with PC-3 prostate was more than 100 µM throughout. In addition, the TGI with SF-268 CNS, with SF-295 CNS, in the experiment with SF-539 CNS and in the experiment on SNB-19 CNS was more than 100 µM throughout.

As to `O=C1O/C(=C(\Br)c2ccc([N+](=O)[O-])cc2)c2ccccc21`, the TGI in the experiment with ACHN renal is more than 100 µM; in the experiment with HCT-15 colon it was more than 81.5 µM; in the experiment on HT29 colon, more than 88.5 µM; in the experiment with M14 melanoma it was more than 100 µM; with MCF7 breast, more than 100 µM; in the experiment with MDA-MB-435, more than 100 µM. Also, the TGI in the experiment with NCI-H226 lung, in the experiment on NCI-H23 lung, with NCI/ADR-RES ovarian, in the experiment with OVCAR-3 ovarian, in the experiment with OVCAR-4 ovarian and in the experiment with PC-3 prostate was more than 100 µM each time. For the same molecule, the TGI with SF-268 CNS, in the experiment with SF-295 CNS, in the experiment on SF-539 CNS and in the experiment with SNB-19 CNS was more than 100 µM throughout.

Regarding `O=[N+]([O-])C(/C(Cl)=C(/Cl)N1CCOCC1)=C1\Nc2ccccc2O1`, the TGI in the experiment with ACHN renal, with HCT-15 colon, in the experiment with HT29 colon, in the experiment on M14 melanoma, with MCF7 breast and in the experiment on MDA-MB-435 was more than 100 µM in each case. In addition, the TGI in the experiment with NCI-H226 lung, in the experiment with NCI-H23 lung, in the experiment with NCI/ADR-RES ovarian, in the experiment on OVCAR-3 ovarian, with OVCAR-4 ovarian and with PC-3 prostate was more than 100 µM each time. The TGI in the experiment on SF-268 CNS, in the experiment on SF-295 CNS, with SF-539 CNS and in the experiment with SNB-19 CNS was more than 100 µM in each case.

Regarding `O=C(Nc1ccc(Cl)cc1)c1cc(S(=O)(=O)Nc2nc3ncccc3[nH]2)c(SSc2cc(Cl)c(C(=O)Nc3ccc(Cl)cc3)cc2S(=O)(=O)Nc2nc3ncccc3[nH]2)cc1Cl`, the TGI with ACHN renal, with HCT-15 colon, in the experiment on HT29 colon, in the experiment with M14 melanoma, in the experiment on MCF7 breast and in the experiment with MDA-MB-435 was more than 100 µM throughout. The TGI with NCI-H226 lung, in the experiment on NCI-H23 lung, with NCI/ADR-RES ovarian, with OVCAR-3 ovarian, with OVCAR-4 ovarian and in the experiment with PC-3 prostate was more than 100 µM each time. The TGI with SF-268 CNS, in the experiment with SF-295 CNS, in the experiment on SF-539 CNS and in the experiment on SNB-19 CNS was more than 100 µM each time.
